Here are results for 3 molecules from ChEMBL document CHEMBL4706476, “Novel Tetrahydropyrido[4,3-d]pyrimidines as Potent Inhibitors of Chaperone Heat Shock Protein 90” (J Med Chem, 2016).

Data set [1] has as its target Heat shock protein HSP 90-alpha (Homo sapiens, UniProt P07900). The experiment in a line: Displacement of FITC-geldanamycin from N-terminal HSP90alpha (unknown origin) after 30 mins by fluorescence polarization competitive binding assay.
Data set [2] is described as follows: Permeability of the compound at pH 7.4 by PAMPA. Format: ADME. Particulars: read-out: permeability.
In another data set the target is Endoplasmin (Homo sapiens, UniProt P14625). The experiment in a line: Displacement of FITC-geldanamycin from N-terminal GRP94 (unknown origin) after 30 mins by fluorescence polarization competitive binding assay.
Endoplasmin, sequence (P14625 whole entry): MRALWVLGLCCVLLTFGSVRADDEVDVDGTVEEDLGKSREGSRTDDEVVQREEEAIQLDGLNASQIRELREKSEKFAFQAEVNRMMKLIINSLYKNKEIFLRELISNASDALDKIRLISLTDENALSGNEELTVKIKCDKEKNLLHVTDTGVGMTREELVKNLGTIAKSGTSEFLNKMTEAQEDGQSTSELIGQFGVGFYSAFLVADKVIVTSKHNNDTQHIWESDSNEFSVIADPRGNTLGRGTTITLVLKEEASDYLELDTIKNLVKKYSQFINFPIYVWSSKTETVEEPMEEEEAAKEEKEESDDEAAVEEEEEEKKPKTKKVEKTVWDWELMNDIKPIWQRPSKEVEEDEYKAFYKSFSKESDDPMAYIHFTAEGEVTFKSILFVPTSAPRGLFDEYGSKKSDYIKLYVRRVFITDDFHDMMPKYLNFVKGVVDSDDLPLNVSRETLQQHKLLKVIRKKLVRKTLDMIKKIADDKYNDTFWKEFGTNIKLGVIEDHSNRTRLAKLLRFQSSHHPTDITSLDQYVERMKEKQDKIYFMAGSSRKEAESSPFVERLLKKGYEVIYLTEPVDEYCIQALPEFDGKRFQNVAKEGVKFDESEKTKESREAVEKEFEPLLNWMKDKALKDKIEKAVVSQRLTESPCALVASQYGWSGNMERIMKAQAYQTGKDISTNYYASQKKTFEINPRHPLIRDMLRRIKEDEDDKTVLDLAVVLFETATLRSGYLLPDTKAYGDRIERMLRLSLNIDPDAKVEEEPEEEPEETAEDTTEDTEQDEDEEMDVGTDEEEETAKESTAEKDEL
Data set [3] is described as follows: Selectivity ratio of IC50 for inhibition of FITC-geldanamycin binding to N-terminal GRP94 (unknown origin) to IC50 for inhibition of FITC-geldanamycin binding to N-terminal HSP90alpha (unknown origin).
A further data set deals with MDA-MB-231. Kind of data set: Antiproliferative activity against human MDA-MB-231 assessed as reduction in cell viability incubated for 72 hrs by MTT assay. It counts as functional, cell-based. Particulars: MDA-MB-231, 72 h.
The subject of another data set is MDA-MB-468. Kind of data set: Antiproliferative activity against human MDA-MB-468 assessed as reduction in cell viability incubated for 72 hrs by MTT assay. Format: functional, cell-based. Particulars: MDA-MB-468, 72 h.
The subject of another data set is SK-BR-3. Kind of data set: Antiproliferative activity against human SK-BR-3 assessed as reduction in cell viability incubated for 72 hrs by MTT assay. Format: functional, cell-based. Particulars: SK-BR-3, 72 h.
In a further data set the test system is T47D. The experiment in a line: Antiproliferative activity against human T47D assessed as reduction in cell viability incubated for 72 hrs by MTT assay. It counts as functional, cell-based.
The subject of a further data set is BT-474. Kind of data set: Antiproliferative activity against human BT-474 assessed as reduction in cell viability incubated for 72 hrs by MTT assay. It counts as functional, cell-based. Particulars: BT-474, 72 h.
A further data set relates to U2OS. The experiment in a line: Antiproliferative activity against human U2OS assessed as reduction in cell viability incubated for 72 hrs by MTT assay. It counts as functional, cell-based.
Another data set deals with MKN-28. Kind of data set: Antiproliferative activity against human MKN-28 assessed as reduction in cell viability incubated for 72 hrs by MTT assay. It counts as functional, cell-based. Particulars: MKN-28, 72 h.
In another data set the test system is A549. Kind of data set: Antiproliferative activity against human A549 assessed as reduction in cell viability incubated for 72 hrs by MTT assay. Format: functional, cell-based. Particulars: A549, 72 h.
For a further data set, the system named is HepG2. The experiment in a line: Antiproliferative activity against human HepG2 assessed as reduction in cell viability incubated for 72 hrs by MTT assay. Format: functional, cell-based. Particulars: HepG2, 72 h.
Another data set has as its system K562. Kind of data set: Antiproliferative activity against human K562 assessed as reduction in cell viability incubated for 72 hrs by MTT assay. Particulars: K562, 72 h. Format: functional, cell-based.
The next data set concerns MV4-11. Kind of data set: Antiproliferative activity against human MV4-11 assessed as reduction in cell viability incubated for 72 hrs by MTT assay. Particulars: MV4-11, 72 h. Format: functional, cell-based.
The next data set deals with L02. The experiment in a line: Cytotoxicity against human L02 cells assessed as reduction in cell viability incubated for 72 hrs by MTT assay. Particulars: L02, 72 h. It counts as cell-based.
Data set [4] relates to HCT-116. The experiment in a line: Antitumor activity against human HCT-116 cells xenografted in nude mouse assessed as reduction in relative tumor volume by measuring T/C ratio at 60 mg/kg, ip administered every other day for 16 days and monitored every 3 days. Particulars: time 16 day. It counts as functional.
For data set [5], the system named is HCT-116. The experiment in a line: cells. Particulars: Homo sapiens, HCT-116, 72 h.
Description: Antiproliferative activity against human HCT-116 cells assessed as reduction in cell viability incubated for 72 hrs by MTT assay
The test system of the next data set is MCF7. The experiment in a line: cells. Particulars: Homo sapiens, MCF7, 72 h.
Data set [6] concerns HCT-116. Kind of data set: Antitumor activity against human HCT-116 cells xenografted in nude mouse assessed as reduction in relative tumor volume by measuring T/C ratio at 40 mg/kg, ip administered every other day for 16 days and monitored every 3 days. Format: functional. Particulars: time 16 day.
Data set [7] in a line: Apparent volume of distribution in rat at 50 mg/kg, po measured upto 24 hrs by LC-MS/MS analysis. Particulars: in vivo. Format: ADME, organism-based.
A short description of data set [8]: Apparent volume of distribution in rat at 10 mg/kg, iv measured upto 24 hrs by LC-MS/MS analysis. Format: ADME, organism-based. Particulars: in vivo, read-out: Vz.
Data set [9] in a line: Toxicity in nude mouse xenografted with human HCT-116 cells assessed as change in body weight at 40 to 60 mg/kg, ip administered every other day for 16 days and monitored every 3 days. Particulars: in vivo, 384 h.
Data set [10] deals with T1, Heat shock protein HSP90 (Homo sapiens) (UniProt P07900+P08238). The experiment in a line: Inhibition of HSP90 in human HCT-116 cells assessed as reduction in AKT protein expression after 24 hrs by Western blot analysis. Format: cell-based. Particulars: dose 0.01-3 µM.
The target of data set [11] is T1, Heat shock protein HSP90 (Homo sapiens). The experiment in a line: Inhibition of HSP90 in human HCT-116 cells assessed as reduction in Erk protein expression after 24 hrs by Western blot analysis. Format: cell-based. Particulars: dose 0.01-3 µM.
The target is the same in data set [12]. The experiment in a line: Inhibition of HSP90 in human HCT-116 cells assessed as reduction in phosphorylated Erk after 24 hrs by Western blot analysis. It counts as cell-based. Particulars: dose 0.01-3 µM.
Data set [13] has the same target. Kind of data set: Inhibition of HSP90 in human HCT-116 cells assessed as induction of HSP70 expression after 24 hrs by Western blot analysis. It counts as cell-based. Particulars: dose 0.01-3 µM.
Data set [14] relates to Rattus norvegicus. The experiment in a line: Ex vivo inhibition of HSP90 in Sprague-Dawley rat assessed as up regulation of HSP70 expression in retina at 20 mg/kg, iv administered for 2 consecutive days and measured 24 hrs post last dose by Western blot analysis. Format: functional, organism-based. Particulars: time 3.0 day.
Data set [15] has as its system Rattus norvegicus. The experiment in a line: Ex vivo inhibition of HSP90 in Sprague-Dawley rat assessed as up regulation of HSP70 expression in retina at 20 mg/kg, iv administered for 2 consecutive days and measured 24 hrs post last dose by immunohistochemistry analysis. It counts as functional, organism-based. Particulars: time 3.0 day.
The test system of data set [16] is HCT-116. The experiment in a line: Antitumor activity against human HCT-116 cells xenografted in nude mouse assessed as decrease in tumor cells at 40 to 60 mg/kg, ip administered every other day for 16 days by hematoxylin and eosin staining based assay. Particulars: dose 40-60 mg/kg, time 16.0 day.
For data set [17], the system named is Mus musculus. Kind of data set: In vivo inhibition of HSP90 in nude mouse xenografted with human HCT-116 cells assessed as decrease in Akt protein level in tumor at 40 to 60 mg/kg, ip administered every other day for 16 days and measured after 12 hrs post last dose by Western blot analysis. Particulars: dose 40-60 mg/kg, time 16.0 day.
Data set [18] concerns Mus musculus. The experiment in a line: In vivo inhibition of HSP90 in nude mouse xenografted with human HCT-116 cells assessed as decrease in Erk protein level in tumor at 40 to 60 mg/kg, ip administered every other day for 16 days and measured after 12 hrs post last dose by Western blot analysis. Particulars: dose 40-60 mg/kg, time 16.0 day.
For data set [19], the system named is Mus musculus. The experiment in a line: In vivo inhibition of HSP90 in nude mouse xenografted with human HCT-116 cells assessed as upregulation of HSP90 protein expression in tumor at 40 to 60 mg/kg, ip administered every other day for 16 days and measured after 12 hrs post last dose by Western blot analysis. Particulars: dose 40-60 mg/kg, time 16.0 day.
The test system of data set [20] is Mus musculus. Kind of data set: In vivo inhibition of HSP90 in nude mouse xenografted with human HCT-116 cells assessed as upregulation of HSP70 protein expression in tumor at 40 to 60 mg/kg, ip administered every other day for 16 days and measured after 12 hrs post last dose by Western blot analysis. Particulars: dose 40-60 mg/kg, time 16.0 day.

Active and inactive are the calls of the source. The rule behind the calls is not given here.

In the case of `CC(C)c1cc(C(=O)N2Cc3ccc(CN4CCN(C)CC4)cc3C2)c(O)cc1O` [ONALESPIB], the half-maximal inhibitory concentration (IC50) in [1] came to 13 nM; at Endoplasmin, 22 nM; in the data set with MDA-MB-231, 38 nM; in the data set with MDA-MB-468 it was 66 nM; in the data set on SK-BR-3, 71 nM; in the data set with T47D it was 24 nM. Further, the IC50 in the data set with BT-474 is 32 nM; with U2OS it was 67 nM; in the data set on MKN-28 it was 129 nM; with A549, 50 nM; in the data set on HepG2, 18 nM; in the data set with K562, 38 nM. In addition, the IC50 is 11 nM in the data set on MV4-11, 11600 nM in the data set with L02, 70 nM with HCT-116 [5] and 20 nM in the data set on MCF7. Moreover, the Papp in data set [2] came to 74.3 ×10⁻⁶ cm/s. For the same molecule, the Ratio IC50 in [3] worked out at 1.7. Also, the T/C in the data set with HCT-116 [4] was found to be 21%.

Take `CCNc1nc(OCCOC)nc2c1CN(C(=O)c1cc(C(C)C)c(O)cc1O)CC2.Cl`: the T/C came out at 45% in the data set on HCT-116 [6] and 23% in the data set with HCT-116 [4]. Further, the Vz in [7] amounted to 1620.19 L/kg. Besides, the Vd in [8] was 29.6 L/kg. Besides, the Activity result in [9] is reported as “Non-Toxic”.

In the case of `CCNc1nc(OCCOC)nc2c1CN(C(=O)c1cc(C(C)C)c(O)cc1O)CC2`, the Ratio IC50 in data set [3] was determined as 26. Also, the inhibition entry in [10], in data set [11], in [12] and in data set [13] was “Dose-dependent effect” throughout. Further, the inhibition entry with Rattus norvegicus [14] and with Rattus norvegicus [15] was “inactive” in each case. The outcome with HCT-116 [16] was Active. Also, the inhibition entry in the data set on Mus musculus [17], in the data set with Mus musculus [18], in the data set on Mus musculus [19] and in the data set with Mus musculus [20] was “Active” each time.
